The test system of test [1] is bladder of female Guinea Pigs. The conditions noted are these: Gillespie 2004; cited from earlier work.
The next test concerns rabbit bladder strips. The test can be described thus: Organ bath, isolated rabbit bladder strips pre-contracted with K+ (50 mmol/l). The conditions noted are these: for % contraction of isolated rabbit bladder strips: percentage of the pre-contraction, mean ± SEM, n = 9; for IC50: Oryctolagus cuniculus, rabbit bladder strips. It counts as cell-based. As for the experimental part: White New Zealand rabbits were anesthetized using thiopental. The urinary bladder was removed and placed in ice-cold Krebs-Henseleit buffer of following composition (in mmol/l): NaCl 112, KCl 5.9, CaCl2 2.0 MgCl2 1.2, NaH2PO4 1.2, NaHCO3 25, and glucose 11.5. Equally sized longitudinal strips of approximately 2 mm×10 mm were cut from the bladder body.
Recording of mechanical activity: The preparations were transferred to 20 ml organ baths containing Krebs-Henseleit solution equilibrated with 95% O2, 5% CO2 at 37° C. The strips were mounted between two hooks by means of two clips. For recording of isometric tension one of the hooks was connected to a force transducer which was in turn linked to an amplifier and chart recorder. The other hook was attached to a movable unit, permitting precise adjustment of preload tension. All tissues were then given a 60 min equilibration period during which they were washed and the resting tension was adjusted to 1 g every 20 min.
After the equilibration period, each experiment was started by exposing the preparation to K^+ (50 mmol/l) Krebs-Henseleit solution. The procedure was repeated 3 times and the tissues were washed at least tree times between each contraction.
The bladder strips were than pre-contracted using K^+ (50 mmol/l) Krebs-Henseleit solution. When the contraction was stabilized, an accumulative dose response curve of the compound tested was constructed. The stabilized contraction induced by K^+ (50 mmol/l) Krebs-Henseleit solution was defined as 100% tension. The relaxation was expressed as percentage tension.
Effects of PDE5 and PDE4 inhibitors on isolated rabbit bladder strips: The effects of the PDE5 inhibitor vardenafil and the PDE4 inhibitor Roflumilast on the relaxation the bladder smooth muscle was tested in the organ bath using rabbit bladder strips. Both compounds were tested in the concentration from 10^−9 mol/l to 10^−5 mol/l (FIG. 4, Tab. 2). […] (Table 2)

The next test deals with rat prostate strips. The test can be described thus: Organ bath, isolated rat prostate strips pre-contracted with phenylephrine. It counts as cell-based. As to conditions: for Prostate (% contraction): percentage of the pre-contraction, mean ± SEM, n = 9. An excerpt:
(§1) Tissue preparation: Male Wistar rats (200-300 g) were euthanized using carbon dioxide. The tissues were removed and placed in ice-cold Krebs-Henseleit buffer of following composition (in mmol/l): NaCl 112, KCl 5.9, CaCl2 2.0 MgCl2 1.2, NaH2PO4 1.2, NaHCO3 25, glucose 11.5. Four equally sized longitudinal strips of approximately 2 mm×10 mm were cut from the bladder body. Prostate strips were obtained by cutting transversally through the lobes of the prostate gland parallel to the urethra. One ring per animal was dissected from the proximal part of the urethra. Recording of mechanical activity: The preparations were transferred to 20 ml organ baths containing Krebs-Henseleit solution equilibrated with 95% O2, 5% CO2 at 37° C. The strips were mounted between two hooks by means of two clips. For recording of isometric tension one of the hooks was connected to a force transducer which was in turn linked to an amplifier and chart recorder. The other hook was attached to a movable unit, permitting precise adjustment of preload tension. All tissues were then given a 60 min equilibration period during which they were washed and the resting tension was adjusted to 1 g every 20 min. After the equilibration period, each experiment was started by exposing the preparation to K^+ (50 mmol/l) Krebs-Henseleit solution. The procedure was repeated 3 times and the tissues were washed at least tree times between each contraction. Prostatic strips and urethral rings were pre-contracted using 10^−6 mol/l phenylephrine. The effects of the compounds on the prostate tissue were tested in a non-cumulative manner with washing steps between each concentration. Organ bath assay: effects of Vardenafil on isolated rat urogenital organs: The effects of the PDE5 inhibitor Vardenafil on the relaxation of smooth muscles were tested in the organ bath system. The compound was applied in the concentration range from 10^−8 mol/l to 10^−5 mol/l (FIG. 3, Table 1).

In the next test the test system is rat bladder strips. The test can be described thus: Organ bath, isolated rat bladder strips pre-contracted with K+ (50 mmol/l). The conditions noted are these: for Bladder (% contraction): percentage of the pre-contraction, mean ± SEM, n = 9. It counts as cell-based. The source says: Tissue preparation: Male Wistar rats (200-300 g) were euthanized using carbon dioxide. The tissues were removed and placed in ice-cold Krebs-Henseleit buffer of following composition (in mmol/l): NaCl 112, KCl 5.9, CaCl2 2.0 MgCl2 1.2, NaH2PO4 1.2, NaHCO3 25, glucose 11.5. Four equally sized longitudinal strips of approximately 2 mm×10 mm were cut from the bladder body. Prostate strips were obtained by cutting transversally through the lobes of the prostate gland parallel to the urethra. One ring per animal was dissected from the proximal part of the urethra. Recording of mechanical activity: The preparations were transferred to 20 ml organ baths containing Krebs-Henseleit solution equilibrated with 95% O2, 5% CO2 at 37° C. The strips were mounted between two hooks by means of two clips. For recording of isometric tension one of the hooks was connected to a force transducer which was in turn linked to an amplifier and chart recorder. The other hook was attached to a movable unit, permitting precise adjustment of preload tension. All tissues were then given a 60 min equilibration period during which they were washed and the resting tension was adjusted to 1 g every 20 min. After the equilibration period, each experiment was started by exposing the preparation to K^+ (50 mmol/l) Krebs-Henseleit solution. The procedure was repeated 3 times and the tissues were washed at least tree times between each contraction. The bladder strips were than pre-contracted using K^+ (50 mmol/l) Krebs-Henseleit solution. When the contraction was stabilized, an accumulative dose response curve of the compound tested was constructed. The stabilized contraction induced by K^+ (50 mmol/l) Krebs-Henseleit solution was defined as 100% tension. The relaxation was expressed as percentage tension. Organ bath assay: effects of Vardenafil on isolated rat urogenital organs: The effects of the PDE5 inhibitor Vardenafil on the relaxation of smooth muscles were tested in the organ bath system. The compound was applied in the concentration range from 10^−8 mol/l to 10^−5 mol/l (FIG. 3, Table 1).

A further test relates to rat urethral rings. Nature of the test: Organ bath, isolated rat urethral rings pre-contracted with phenylephrine. It counts as cell-based. The conditions noted are these: for Urethra (% contraction): percentage of the pre-contraction, mean ± SEM, n = 9.
Text: as §1

The next test concerns CYP-treated rats. Nature of the test: Anaesthetized cystometry, micturition interval in CYP-treated rats (overactive bladder). It counts as in vivo, rat. The conditions noted are these: i.v. The method, then: All animal experiments were performed due to the “German Law for the Protection of Laboratory animals” and were conducted due to the approved guidelines of the permission “Tierversuchsvorhaben No 401/A01 M010/M011 vom Sep. 7, 2004”. Experiments were performed with female Sprague Dawley Rats with a body weight between 200-250 g. Anaesthetized cystometry: For cystometry female SD rats were anaesthetized with urethane (1.2 g/kg, ip). After laparotomy, the bladder was exposed and both ureters were ligated and cut. A polyethylene cannula (PE50) was implanted into the bladder dome, and the abdomen was closed. The bladder catheter was connected to the t-shaped tube to connect a infusion pump (Perfusor® compact; Braun Melsungen) for continuous infusion of saline solution and to connect a pressure transducer (Combitrans; Braun Melsungen) for measurement of intrabladder pressure. The intrabladder pressure signals were registered with the Powerlab System (MLT0698, ADInstrument). […] The effect of treatments was calculated on the micturition interval (corresponding to bladder capacity). […]
Statistical analysis of results: Data are expressed as means i standard error of the means (SEM), and n indicating the number of experiments. The significance of differences between means was determined by paired and unpaired Student's t-test. […]

A further test concerns BOO rats. Nature of the test: Conscious cystometry in rat bladder outlet obstruction (BOO) model, non voiding contractions. In kind it is in vivo. As to conditions: i.v. The method, then: All animal experiments were performed due to the “German Law for the Protection of Laboratory animals” and were conducted due to the approved guidelines of the permission “Tierversuchsvorhaben No 401/A01 M010/M011 vom Sep. 7, 2004”. Experiments were performed with female Sprague Dawley Rats with a body weight between 200-250 g.
Bladder Outlet Obstruction: For the bladder outlet obstruction, rats were anesthetized with a mixture of 1.5-2% isoflurane in a carrier of 66% N2O 33% O2. The abdomen was shaved, opened by a lower midline incision, bladder and urethra were identified and the urethravesical junction was exposed. A 1.0 mm metal rod was placed along the proximal urethra and a 6-0 nylon ligature was tied tightly around the urethra and the rod. The rod was consecutively removed and the abdomen was closed by a silk ligature and cleaned up by 70% ethanol. […]
Conscious cystometry: For cystometry the animals were shortly anaesthetized by isoflurane as described above, placed in a Ballman's cage and fixed. […] The efficacy of treatment was quantified via calculation of the non voiding contractions per micturition interval before and after treatment. […]
Statistical analysis of results: Data are expressed as means±standard error of the means (SEM), and n indicating the number of experiments. The significance of differences between means was determined by paired and unpaired Student's t-test. […]

The test system of the next test is human prostate tissue. As to conditions: in vitro; Ückert 2001; cited from earlier work.
Where [2] appears, read: read-out: IC50, relaxation of bladder strips.

Structures are written as SMILES. Where two headings read alike, the source gives them in different places.

As for `CC(C)Cn1c(=O)n(C)c(=O)c2[nH]cnc21` [IBMX], the relaxation of bladder entry in test [1] is listed as “could relax”.

Consider `O=C(Nc1c(Cl)cncc1Cl)c1ccc(OC(F)F)c(OCC2CC2)c1` [Roflumilast], for which the “% contraction of isolated rabbit bladder strips” value in the test on rabbit bladder strips (0.001 μmol/l) was determined as 100.8 ± 0.6%; with rabbit bladder strips (0.01 μmol/l), 90.1 ± 1.7%; in the test with rabbit bladder strips (0.1 μmol/l), 75.1 ± 2.1%; in the test on rabbit bladder strips (1 μmol/l), 55.8 ± 2.5%; with rabbit bladder strips (10 μmol/l) it was 40.9 ± 3.3%. Moreover, the IC50 in the test on rabbit bladder strips (setting [2]) came out at 260 nM; in the test with rabbit bladder strips (read-out: IC50, relaxing effects on rabbit bladder strips), 260 nM.

As for `CCCc1nc(C)c2c(=O)[nH]c(-c3cc(S(=O)(=O)N4CCN(CC)CC4)ccc3OCC)nn12` [Vardenafil, 2-(2-Ethoxy-5-(4-ethylpiperazin-1-yl-1-sulfonyl)phenyl)-5-methyl-7-propyl-3H-imidazo (5,1-f) (1,2,4)triazin-4-one], the “Prostate (% contraction)” value in the test on rat prostate strips (0.1 μmol/l) worked out at 99.2 ± 3.0%; in the test on rat prostate strips (1 μmol/l) it was 76.0 ± 2.3%; in the test with rat prostate strips (10 μmol/l), 25.3 ± 3.2%. For the same molecule, the EC50 in the test with rat prostate strips (rat prostate strips, read-out: EC50, relaxation of prostate strips) came out at 1100 nM; with rat bladder strips (rat bladder strips, read-out: EC50, relaxation of bladder strips), 5 µM; with rat urethral rings (rat urethral rings, read-out: EC50, relaxation of urethral rings) it was 960 nM. In addition, the “Bladder (% contraction)” value with rat bladder strips (0.001 μmol/l) is recorded as 94.3 ± 0.9%; in the test with rat bladder strips (0.01 μmol/l) it was 91.2 ± 1.3%; in the test on rat bladder strips (0.1 μmol/l), 89.9 ± 1.8%; with rat bladder strips (1 μmol/l), 77.8 ± 2.1%; in the test with rat bladder strips (10 μmol/l), 25.3 ± 3.2%. The “Urethra (% contraction)” value with rat urethral rings (0.001 μmol/l) is given as 88.4 ± 2.4%; with rat urethral rings (0.01 μmol/l) it was 88.5 ± 2.1%; with rat urethral rings (0.1 μmol/l), 77.1 ± 3.9%; with rat urethral rings (1 μmol/l), 44.9 ± 1.5%; in the test on rat urethral rings (10 μmol/l) it was 3.5 ± 1.7%. In the test with CYP-treated rats, the “MED, significant increase of micturition interval” value amounted to 3 mg/kg. Moreover, the “MED, significant reduction of non voiding contractions (NVC)” value with BOO rats turned out to be 3 mg/kg. In addition, the “% contraction of isolated rabbit bladder strips” value is listed as 100.9 ± 1.0% in the test with rabbit bladder strips (0.001 μmol/l); 99.9 ± 0.9% in the test with rabbit bladder strips (0.01 μmol/l); 95.7 ± 1.7% in the test with rabbit bladder strips (0.1 μmol/l); 76.3 ± 3.7% with rabbit bladder strips (1 μmol/l); 9.6 ± 12.6% in the test with rabbit bladder strips (10 μmol/l). The IC50 in the test on rabbit bladder strips (setting [2]) amounted to 1700 nM.

Take `CCCOc1ccccc1-c1nc2nn[nH]c2c(=O)[nH]1` [Zaprinast]: the relaxation of bladder result in test [1] is “ineffective”. Also, the “relaxation of pre-contracted human prostate tissue” value with human prostate tissue is “able to relax”.

What is called IC50 is the concentration needed to halve the response being measured. Broadly, the EC50 is the concentration at which the effect is half-maximal.

Source of the values: patent US20090186896A1, “PDE Inhibitors and Combinations Thereof for the Treatment of Urological Disorders” (Bayer HealthCare AG, priority 2005, published 2009).
